Measured values as given in patent US20140128385A1 (NOVARTIS AG, priority 2011, published 2014).
pIC50: −log10 of the molar value. Counter-ions that a name gives are not always drawn.

Target: T1, BACE-2 (Homo sapiens, UniProt Q9Y5Z0)
T1 construct: Recombinant BACE-2 (extracellular domain, expressed in baculovirus and purified using standard methods); made in house
T1 sequence (Q9Y5Z0 63-473 limits assumed): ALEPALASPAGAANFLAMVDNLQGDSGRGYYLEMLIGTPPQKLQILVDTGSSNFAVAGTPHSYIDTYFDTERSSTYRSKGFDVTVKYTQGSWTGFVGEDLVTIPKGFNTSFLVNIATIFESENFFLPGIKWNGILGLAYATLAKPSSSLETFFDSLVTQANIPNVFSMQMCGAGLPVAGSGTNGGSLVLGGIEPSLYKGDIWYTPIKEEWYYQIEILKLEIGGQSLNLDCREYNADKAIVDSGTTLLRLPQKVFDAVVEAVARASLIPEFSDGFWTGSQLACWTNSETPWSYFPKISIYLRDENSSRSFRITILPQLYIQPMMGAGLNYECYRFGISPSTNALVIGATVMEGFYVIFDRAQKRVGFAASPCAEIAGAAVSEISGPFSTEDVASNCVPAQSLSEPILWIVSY
Test: assay for inhibition of BACE-2
Format: biochemical

First: [2H]c1nc(C(=O)Nc2cc(C3(CF)COCC(N)=N3)ccn2)c(C([2H])([2H])[2H])c([2H])c1Cl (stereo not shown) [Example 269, 5-{2-[(5-Chloro-4,6-dideutero-3-trideuteromethyl-pyridine-2-carbonyl)-amino]-pyridin-4-yl}-5-fluoromethyl-5,6-dihydro-2H-[1,4]oxazin-3-yl-ammonium acetate]
Second: Cc1cc(C(N)=S)cnc1C(=O)Nc1cc(C2(CF)COCC(N)=N2)ccn1 (stereo not shown) [Example 271, 5-Fluoromethyl-5-{2-[(3-methyl-5-thiocarbamoyl-pyridine-2-carbonyl)-amino]-pyridin-4-yl}-5,6-dihydro-2H-[1,4]oxazin-3-yl-ammonium trifluoro-acetate]
The pIC50 of the first is higher: 5.82 for the first, under 5.00 for the second. The first is the more potent here.

Compared with `NC1=NC(CF)(c2ccnc(NC(=O)c3ccc(Cl)cn3)c2)COC1` (stereo not shown) [Example 270], `NC1=NC(CF)(c2cc(NC(=O)c3ccc(Br)cn3)cnc2Cl)COC1` (stereo not shown) [Example 274, 5-Bromo-pyridine-2-carboxylic acid [5-(5-amino-3-fluoromethyl-3,6-dihydro-2H-[1,4]oxazin-3-yl)-6-chloro-pyridin-3-yl]-amide hydrochloride] is 1.56 log units higher in pIC50: 5.32 for the first, 6.88 for the second.
